Results: patent US12427179B2, “Compositions and methods for diagnosis and treatment of neurodegenerative diseases” (EPITRACKER, INC., priority 2019, dated 2025)

Key:
[1] = tested on: BE3C: Bronchial epithelial cells (IL-1β, IFNγ, TNFα); test: BioMAP BE3C system; format: cell-based, human; settings: at the compound's active concentration
Text: The Diversity PLUS panel allows test agent characterization in an unbiased way across a broad set of systems modeling various human disease states. These systems are designed to model complex human tissue and disease biology of the vasculature, skin, lung, and inflammatory tissues.
(§1) BioMAP systems are constructed with one or more primary cell types from healthy human donors, with stimuli (such as cytokines or growth factors) added to capture relevant signaling networks that naturally occur in human tissue or pathological conditions. Vascular biology is modeled in both a Th1 (3C system) and a Th2 (4H system) inflammatory environment, as well as in a Th1 inflammatory state specific to arterial smooth muscle cells (CASM3C system). Additional systems recapitulate aspects of the systemic immune response including monocyte-driven Th1 inflammation (LPS system) or T cell stimulation (SAg system), chronic Th1 inflammation driven by macrophage activation (lMphg system) and the T cell-dependent activation of B cells that occurs in germinal centers (BT system). The BE3C system (Th1) and the BF4T system (Th2) represent airway inflammation of the lung, while the MyoF system models myofibroblast-lung tissue remodeling. Lastly, skin biology is addressed in the KF3CT system modeling Th1 cutaneous inflammation and the HDF3CGF system modeling wound healing.
(§2) Each test agent generates a signature BioMAP profile that is created from the changes in protein biomarker readouts within individual system environments. Biomarker readouts (7-17 per system) are selected for therapeutic and biological relevance, are predictive for disease outcomes or specific drug effects and are validated using agents with known mechanism of action (MoA). Each readout is measured quantitatively by immune-based methods that detect protein (e.g., ELISA) or functional assays that measure proliferation and viability. BioMAP readouts are diverse and include cell surface receptors, cytokines, chemokines, matrix molecules and enzymes.
(§3) Activated BioMAP systems were incubated with each compound for 24 to 72 hours. Protein-based biomarkers from activated cell systems were measured and compared with non-treated control systems.

[2] = tested on: human primary cell-based systems; test: BioMAP Diversity PLUS panel, phenotypic profiling; settings: tested at 6.7 and/or 20 μM; 24 to 72 hours
Experimental: (§4) Anti-inflammatory phenotypic profiling was conducted across 12 human primary cell-based systems as part of DiscoverX's BioMAP Diversity Plus program. These systems are designed to model complex human tissue and disease biology of the vasculature, skin, lung, and inflammatory tissues. Quantitative measurements of biomarker activities across this broad panel were used to assess each biochemical's anti-inflammatory activity at four concentrations ([…] and 2.2, 6.7 and 20 μM). […] Protein-based biomarkers from activated cell systems were measured and compared with controls.
(§5) The Diversity PLUS panel allows test agent characterization in an unbiased way across a broad set of systems modeling various human disease states. These systems are designed to model complex human tissue and disease biology of the vasculature, skin, lung, and inflammatory tissues. Quantitative measurements of 148 biomarker activities across this broad panel, along with comparative analysis of biological activities from known bioactive agents, were used to predict and compare the efficacy and function of each selected compound at selected concentrations (6.7 and/or 20 μM).
as §1
as §2, with “enzymes. In total, the Diversity PLUS panel contains 148 biomarker readouts that capture biological changes that occur within the physiological context of the particular BioMAP system.” for “enzymes.”
as §3

[3] = tested on: BT: Peripheral blood mononuclear cells, B cells (α-IgM, TCR ligands); test: BioMAP BT system; format: cell-based, human; settings: BT system; at the compound's active concentration
Experimental: as §4, with “controls. Biomarker activities were annotated when 2 or more consecutive concentrations change in the same directions relative to vehicle controls, were outside of the significance envelope and had at least one concentration with an effect size>20% (log 10 ratio)>0.1.” for “controls.”
In the first system, human primary peripheral blood mononuclear cells and venular endothelial cells were stimulated with lipopolysaccharide (LPS) and incubated with the test agent, drug control, or vehicle control for 24 hours. In the second system, peripheral blood mononuclear cells and B cells were stimulated with α-IgM and T cell receptor ligands and incubated with the test agent, drug control, or vehicle control for 24 hours. In both systems, a negative, non-stimulated system was also included.
as §5, §1
as §2, with “enzymes. In total, the Diversity PLUS panel contains 148 biomarker readouts that capture biological changes that occur within the physiological context of the particular BioMAP system. […]” for “enzymes.”

[4] = tested on: 4H: Venular endothelial cells (IL-4, histamine); test: BioMAP 4H system; format: cell-based, human; settings: at the compound's active concentration
Text: as §5
BioMAP systems are constructed with one or more primary cell types from healthy human donors, with stimuli (such as cytokines or growth factors) added to capture relevant signaling networks that naturally occur in human tissue or pathological conditions. Vascular biology is modeled in both a Th1 (3C system) and a Th2 (4H system) inflammatory environment, as well as in a Th1 inflammatory state specific to arterial smooth muscle cells (CASM3C system). […]
as §2, with “enzymes. In total, the Diversity PLUS panel contains 148 biomarker readouts that capture biological changes that occur within the physiological context of the particular BioMAP system. […]” for “enzymes.”
as §3

O=C(O)CNC(=O)c1ccccc1 [hippurate]
MMP-1, log10 reduction vs nontreated controls [1]: −0.14 log10
Active concentrations [2]: 6.7 to 20 µM
Secreted IgG, log10 reduction vs nontreated controls [3]: −0.21 log10
P-selectin, log10 reduction vs nontreated controls [4]: −0.10 log10
